Experimental data from patent publication US10786475B2, “Method for preventing, treating, or improving fatty liver by administering effective amounts of azelaic acid to a subject” (Korea University Research and Business Foundation, priority 2018, dated 2020).

Tests used:
Olfr544 = experiment: cAMP, calcium and PKA activity in Hepa1c1c-7 cells (Olfr544 activation); type: cell-based, mouse
Experimental: A cAMP assay estimates a production level of cAMP, which is a secondary messenger material of a GPCR receptor activated by a ligand, using a cAMP standard calibration curve. A 96 well-plate included in a cAMP Assay ELISA kit (Enzo Life science, New York, USA) was coated with a GxR IgG antibody, and cAMP in a blue solution for plotting the standard calibration curve, binds with alkaline phosphatase and turns into yellow color by the rabbit antibody. When pNpp substrate is added into the wells bound with cAMP, alkaline phosphatase is activated to cause the color changes, and a cAMP concentration may be measured through colorimetric quantification at a wavelength of 405 nm. In this experiment, Hepa1c1c-7 cells were seeded on a 96-well plate at 1×10^4 cells/well for differentiation, and treated with 50 μM of AzA and 1 μM of Forskolin (FSK), which is a positive control, for 18 hours, and then a cAMP concentration was measured according to the above-described method.

ob/ob mouse = experiment: Fatty liver inhibitory effect in ob/ob mouse; type: in vivo; settings: 60% high-fat diet, AzA 50 mg/kg oral, 6 weeks
Experimental: A 7-week-old male fatty liver model ob/ob mouse was purchased from Central Laboratory Animal Inc. to be used in an experiment. An AzA was orally administered at 50 mg/kg of body weight along with a 60% high-fat diet (HFD) for 6 weeks. As the experiment progresses, body weight was measured once a week, and food intake was measured […] on the last week. The concentration of triglycerides in liver tissue was measured by homogenizing liver tissue of a mouse in 600 μL of acetone (Daejung, Korea), storing the homogenate at 4° C. for 24 hours, and obtaining a fat part by centrifugation at 12000 rpm for 10 minutes. The fat part was dried, dissolved in 95% ethanol, quantified using a Cobas C11 autoanalyzer (Roche, Basel, Switzerland) and normalized with a liver weight. A fatty acid oxidation rate was measured and analyzed by the method of Example 4-4 described above.

[1] = system: Hepa1c1c-7 cells stimulated by LPS; experiment: GPCR 10-pathway reporter assay in LPS-induced Hepa1c1c-7 cells; type: cell-based, mouse; settings: 100 ng/mL LPS 1 hour, then 50 μM AzA 6 hours
Experimental: Mouse hepatocytes, i.e., Hepa1c1c-7 cells were seeded on a 96 well-plate at 1×10^4 cells/well and cultured for 24 hours, and transfected with a construct including a transcription factor promoter and a luciferase for 8 hours. The experiment was performed on two groups, i.e., a group with inflammation in hepatocytes caused by LPS and a group not being treated with LPS. In the non-treated control, 50 μM of AzA was treated for 6 hours, and in the experimental group, inflammation was induced by treating 100 ng/mL of LPS, the inflammation-inducing material, for 1 hour, and then 50 μM of AzA was treated for 6 hours. As a result, downstream pathway, which was activated by an AzA, was confirmed. To confirm a mechanism of an anti-inflammatory effect of an AzA, 10 transcription factors for signal transduction of GPCR were analyzed. […] Based on the Olfr544-cAMP-CREB signal transduction process of an AzA, the change of a complicated downstream signal transduction pathway system in response to GPCR activation and inhibition was examined using 10 types of transcription factors through a GPCR 10-pathway reporter assay. A GPCR 10-signal transduction pathway measurement is a method for assessing a representative signal pathway of GPCR using a reporter gene assay method, and the change of a complicated downstream signal transduction pathway system in response to the activation and inhibition of GPCR can be assessed using 10 types of transcription factors. A GPCR Signaling 10-pathway Reporter Array (QIAGEN, Netherlands) used in this example includes a transcription factor inducing downstream signal transduction and a firefly luciferase construct in each experimental group, and is based on a principle, in which luciferase activity is measured by continuously expressing a Renilla luciferase construct. The 10 types of transcription factors are as follows: ATF2/ATF3/ATF4, CREB, ELK1/SRF, FOS/JUN, MEF2, GLI, FOXO, STAT3, NFAT, and NFκB. In this example, the luciferase activity was measured using a dual luciferase assay kit (Promega, USA) and Victor™ X2 (PerkinElmer, CA, USA).

[2] = system: Hepa1c1c-7 cells stimulated by LPS; experiment: IL-6 and TNF-α cytokine concentration (ELISA) in LPS-treated Hepa1c1c-7 cells; type: cell-based, mouse; settings: 50 μM AzA pretreatment 1 hour, 100 ng/mL LPS 6 hours
Experimental: Hepa1c1c-7 cells were cultured in a 12-well plate for 24 hours. Subsequently, the cells were pretreated with 50 μM of AzA for 1 hour, and treated with 100 ng/mL LPS for 6 hours with the AzA present. The Hepa1c1c-7 cells were lysed in a cell lysis buffer (50 mM Tris, 1% Triton-X 100, 1 mM EDTA, proteinase inhibitor), centrifuged at 13,000 rpm and 4° C. for 20 minutes, thereby obtaining a supernatant, and then the supernatant was analyzed using a Mouse IL6 ELISA kit and a Mouse TNFα ELISA kit (Thermo Scientific, IL, USA). Tumor necrosis factor-alpha (TNF-α) and interleukin-6 (IL-6) were quantified using ELISA known to those of ordinary skill in the art.

[3] = system: mouse primary hepatocytes; experiment: Fatty acid decomposition gene markers in mouse primary hepatocyte; type: cell-based
Experimental: To reconfirm the liver tissue lipolytic effect of an AzA, an additional experiment was performed using a mouse primary hepatocyte. […] Therefore, it was reconfirmed that an AzA stimulates fatty acid oxidation, thereby treating/preventing a fatty liver lesion.

SMILES: O=C(O)CCCCCCCC(=O)O [AzA, nonanedioic acid]
- cAMP concentration in the cells (Olfr544; 50 μM AzA, 18 hours, compared with control group): significantly increased
- PKA activity (Olfr544; AzA treatment): significantly increased
- calcium concentration in the cells (Olfr544; compared with control group): significantly increased
- expression of PPARα and a target gene thereof (Hmgcs2) in liver tissue (ob/ob mouse): significantly increased
- triglyceride concentration in liver tissue (ob/ob mouse): reduced
- body weight (ob/ob mouse; compared with control group): decreased
- CREB transcription factor activity (cAMP/PKA pathway) [1]: significant activities
- ELK1/SRF transcription factor activity (MAPK/ERK pathway) [1]: significant activities
- STAT3 transcription factor activity (IL-6 signaling pathway) [1]: significant activities
- expression level of the IL-6 protein [2]: tendency of decrease
- Acox1 gene marker [3]: significantly increases
- Cpt1a gene marker [3]: significantly increases
- Ppara gene marker [3]: significantly increases
